Reference: patent US4923865A, “Substituted 1-(1H-imidazol-4-yl)alkyl-benzamides as anti-ischemics and as alpha-2-adrenergic receptor agonists” (U C B Societe Anonyme, priority 1988, dated 1990)

Columns and labels:
[1] = test system: stenosis at the level of a coronary artery; experiment: Effort trial on a moving belt in dogs with coronary artery stenosis; type: in vivo, dog; conditions: dose 0.018 μmole/kg i.v.; maximum effort at 12 Km/h for 1 minute
Description: (b) Effort trial on a moving belt. In this test, a group of at least four dogs is used (equipped with intracardiac electrodes), the dogs having an organic stenosis at the level of a coronary artery. This stenosis causes imbalance between the demand and supply of oxygen when the animal is required to make an effort. This imbalance is expressed on the electrocardiogram by an increase in the ST-segment.
In the trial, the dog runs at a speed of 12 km/h on a moving belt having a slope of 15°. This maximum effort is required for one minute. During the trial, the increase in the ST-segment is recorded, together with the natural increase in the pulse rate. The experiment is repeated at least four times, and the mean of the values obtained is taken as reference (100%) for the group of animals. The animals are then allowed to rest for a minimum of 24 hours before being subjected to a new effort trial under the influence of the compound to be studied.
The compound to be studied is administered slowly (over 1 minute) by intravenous injection 5 minutes before the new effort trial. In the course of the latter, the variations in the same parameters are recorded.

cerebral ischemia = experiment: General and permanent cerebral ischemia in rat (ligature of the two common carotid arteries); type: in vivo, male Wistar rats; conditions: 0.76 μg/kg (3.2 nmoles) i.p.; maximum score 17; control 12; P 0.005
Description: (a) General and permanent cerebral ischemia in rat. Male Wistar rats (200 to 250 g) are anesthetized by inhalation of halothane (1 to 5%) contained in a N2 O--O2 (70:30) mixture. The two common carotid arteries are ligatured simultaneously close to the passage between the internal carotid and external carotid using the method described by M. LE PONCIN-LAFITTE et al., J. Pharmacol. (Paris), 14, (1983), 99-102.
The compound to be tested is administered intraperitoneally for a first time 30 minutes before making the ligatures, and subsequently 30 minutes and 270 minutes after making the ligatures. On the next day, and on the day after the next, the neurological deficit in the surviving animals is evaluated by the method described by C. CAPDEVILLE et al., J. Pharmacol. (Paris), 15, (1984), 231-237, and by B. KOLB et al., Neurobehav. Toxicol. Teratol. 7, (1985), 71-78. […] Table III gives for compound A, administered intraperitoneally at a dose of 0.76 μg/kg (3.2 nmoles), the mean of the neurological scores determined for the whole group of surviving animals of the control group and of the treated group, as recorded two days after the ligatures. The statistical significance (P) of the difference observed between these mean values is evaluated by the Mann-Whitney test.

[2] = target: T1, presynaptic α2 -adrenergic receptors (Cavia porcellus, UniProt Q60474); experiment: Stimulation of the isolated guinea-pig atria (reduction in tachycardia)
T1 construct: Stimulation of a guinea-pig ileum; from tissue; host or cells: guinea-pig ileum longitudinal muscle strips
T1 sequence (Q60474 1-464): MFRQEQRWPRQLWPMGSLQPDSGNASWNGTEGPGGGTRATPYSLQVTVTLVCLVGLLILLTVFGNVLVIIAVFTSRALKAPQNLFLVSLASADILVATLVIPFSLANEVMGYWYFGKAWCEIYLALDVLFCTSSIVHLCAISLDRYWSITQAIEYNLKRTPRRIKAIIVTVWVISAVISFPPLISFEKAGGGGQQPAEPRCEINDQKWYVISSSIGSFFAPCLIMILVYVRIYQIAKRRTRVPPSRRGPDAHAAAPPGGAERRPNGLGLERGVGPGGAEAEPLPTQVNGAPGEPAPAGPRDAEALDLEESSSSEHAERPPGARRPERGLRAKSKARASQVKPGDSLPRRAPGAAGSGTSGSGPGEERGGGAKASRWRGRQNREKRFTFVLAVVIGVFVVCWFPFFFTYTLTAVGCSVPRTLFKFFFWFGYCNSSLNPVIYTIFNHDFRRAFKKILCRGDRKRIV
Source text: (b) Stimulation of the isolated guinea-pig atria. The release of noradrenalin at the level of the nerve endings is mediated by a feedback regulating mechanism through the presynaptic α2 -adrenergic receptors. […] Ed. D. S. DAVIES, J. L. REID, Pitman, London.
The electrical stimulation of the isolated guinea-pig atria induces a release of noradrenalin which results in an increase in the rate of the heart beat (tachycardia). This tachycardia is inhibited by an α2 -agonist such as, for example, clonidine, in a proportion which depends on the dose of the agonist used. The action of the α2 -agonist may be limited in the presence of an α2 -specific antagonist such as α-yohimbine.
The in vitro activity of the compounds of the invention on the presynaptic α2 -adrenergic receptors has been studied on the isolated guinea-pig atria, electrically stimulated according to the method described by I. C. MEDGETT et al., Naunyn-Schmiedeberg's Arch. Pharmacol. 304, (1978), 215-221. The compound to be studied is tested in increasing concentrations ranging from 10^-10 to 10^-3 mole/l. The concentration (IC30 in mole/l) which causes a 30% reduction in the maximum tachycardia obtained initially during the electrical stimulation of the atria in the absence of the compound to be tested, is determined.
On the other hand, in the presence of a concentration of 10^-6 mole/l of α-yohimbine, the concentration of compound A necessary to obtain a reduction of 30% in the tachycardia is greater than 10^-7 mole/l.

male NMRI mice = experiment: Toxicity, Irwin's test (lethal dose); type: in vivo; conditions: intraperitoneal
Description: 5. Toxicity. The toxicity of the compounds according to the present invention has been determined in male NMRI mice by means of Irwin's test (S. IRWIN, Psychopharmacologia, 13, (1968), 222-257).
Progressive doses of the test compound are administered intraperitoneally to groups of three mice until the lethal dose is reached (dose causing the death of two out of three animals within 48 hours). In Table IX below, the lethal dose in mg/kg found for the compounds of the invention is given. It can be seen from this Table that the compounds of the invention are not very toxic.

Structure (SMILES): Cl.NC(=O)c1cccc(Cc2c[nH]cn2)c1O [A, 2-hydroxyl-3-[(1H-imidazol-4-yl)methyl]-benzamide hydrochloride]
- reduction in ST-segment [1]: 74%
- reduction in the pulse rate [1]: 3 beats/min.
- Neurological scores after 2 days (cerebral ischemia): 15
- concentration necessary to obtain a reduction of 30% in the tachycardia ([2]; in the presence of 10^-6 mole/l of α-yohimbine): greater than 10^-7 mole/l
- IC30 ([2]; isolated guinea-pig atria, electrical stimulation, read-out: IC30 (30% reduction in the maximum tachycardia)): 0.9 nM
- lethal dose (death of two out of three animals within 48 hours) (male NMRI mice): 760 mg/kg
